tested on: KB; experiment: Cytotoxicity against human KB cells; assay type: functional; conditions: read-out: ED50 (the source's name)

| Structure (SMILES) | EC50 |
| --- | --- |
| C=C1C(=O)O[C@@H]2[C@H]1CC[C@H](C)[C@@H]1C[C@@H](O)C(=O)[C@@]21C | 10 µM |
| C=C1C(=O)O[C@H]2[C@H]1[C@H](OC(=O)/C(C)=C\C)C[C@@]1(CO1)[C@@H]1[C@H](O)[C@H]3O[C@@]3(C)[C@]21O | 0.63 µM |
| C=C1C(=O)O[C@@H]2C3O[C@]3(C)CC/C=C(\C)CC[C@@H]12 (some centres undefined) | 5.3 µM |
| C=C1C(=O)O[C@@H]2/C=C(\CO)CC/C=C(\CO)C[C@H](OC(=O)C(C)C)[C@@H]12 [ALATOLIDE] | 4 µM |
| C=C1C(=O)O[C@@H]2[C@H]1CC[C@H](C)[C@@H]1C=CC(=O)[C@@]21C [AMBROSIN] | 1.83 µM |
| C=C1C(=O)O[C@H]2C[C@@]3(CO3)[C@@H]3C[C@H](OC(C)=O)C(=C)[C@]3(O)C[C@H]12 [ARCTOLIDE] | 29 µM |
| C=C1C(=O)O[C@H]2C[C@@H](C)[C@@H]3C=CC(=O)[C@@]3(C)C[C@H]12 [AROMATICIN] | 1.38 µM |
| C=C1C(=O)O[C@H]2C/C(C)=C/C[C@@H](OC(C)=O)/C(C)=C/[C@@H](OC(C)=O)[C@@H]12 [CHAMMISSONIN DIACETATE] | 6.12 µM |
| C=C1C(=O)O[C@@H]2[C@H]1CC[C@H](C)[C@]1(O)CCC(=O)[C@@]21C [CORONOPILIN] | 5.49 µM |
| C=C1C(=O)O[C@@H]2/C=C(\C)CC/C=C(\C)CC[C@@H]12 [COSTUNOLIDE] | 2.46 µM |
| C=C1C(=O)O[C@H]2/C=C(\C)C(=O)C/C=C(/C)C[C@H](OC(=O)/C(C)=C\C)[C@@H]12 [DEHYDRONOBILIN] | 2.7 µM |
| C=C1C(=O)O[C@@H]2[C@H]3C(CO)=CC(=O)C3=C(C)CC[C@@H]12 [DEOXYLACTUCIN] | 3.1 µM |
| C=C1C(=O)O[C@@H]2[C@H]1[C@@H](O)C[C@H](C)[C@@H]1CCC(=O)[C@@]21C [DESACETYLCONFERTIFLORIN] | 8.71 µM |
| C=C1C(=O)O[C@H]2[C@H]1[C@@H](OC(=O)C=C(C)C)CC1=C[C@@H](C[C@@]3(C)O[C@H]23)OC1=O [ELEPHANTIN] | 3.22 µM |
| C=C1C(=O)O[C@H]2CC3=C[C@@H](C[C@]4(C)O[C@@H]4[C@@H](O)[C@H]12)OC3=O [ELEPHANTOL] | 123 µM |
| C=C(C)C(=O)O[C@H]1CC2=C[C@@H](C[C@@]3(C)O[C@@H]3[C@H]3OC(=O)C(=C)[C@@H]31)OC2=O [ELEPHANTOPIN] | 2.51 µM |
| C=C1C(=O)O[C@@H]2/C=C(/C)[C@@H](O)C[C@H]3O[C@]3(C)C[C@@H](OC(=O)/C(C)=C\C)[C@@H]12 [EPOXYNOBILIN] | 0.99 µM |
| C=C1[C@H](O)C[C@H](O)[C@]2(C)CC[C@@H]3[C@H](OC(=O)[C@H]3C)[C@@H]12 [ERIVANIN] | 1.1 µM |
| C=C1C(=O)O[C@H]2[C@H]1[C@H](OC(=O)/C(C)=C\C)C[C@](O)(CCl)[C@@H]1[C@H](OC(C)=O)C=C(C)[C@]21O [EUPACHLORIN ACETATE] | 0.35 µM |
| C=C1C(=O)O[C@H]2[C@H]1[C@H](OC(=O)/C(C)=C\C)C[C@](O)(CCl)[C@@H]1[C@H](O)C=C(C)[C@]21O [EUPACHLORIN] | 0.51 µM |
| C=C1C(=O)O[C@H]2[C@H]1[C@H](OC(=O)/C(C)=C\C)C[C@](O)(CCl)[C@@H]1[C@H](O)[C@H]3O[C@@]3(C)[C@]21O [EUPACHLOROXIN] | 8.39 µM |
| C=C1C(=O)O[C@@H]2/C=C(/CO)[C@@H](OC(C)=O)C[C@H](O)/C(C)=C\[C@@H](OC(=O)/C(C)=C/C)[C@@H]12 [EUPACUNOLIN] | 8.8 µM |
| C=C1C(=O)O[C@@H]2/C=C(/C)[C@@H](OC(C)=O)C[C@H](O)/C(C)=C\[C@@H](OC(=O)[C@]3(C)O[C@@H]3C)[C@@H]12 [EUPACUNOXIN] | 5 µM |
| C=C1C(=O)O[C@H]2[C@H]1[C@H](OC(=O)/C(C)=C\C)C[C@]1(CO1)[C@@H]1[C@H](OC(C)=O)C=C(C)[C@]21O [EUPAROTIN ACETATE] | 0.53 µM |
| C=C1C(=O)O[C@H]2[C@H]1[C@H](OC(=O)/C(C)=C/C)C[C@]1(CO1)[C@@H]1[C@H](O)C=C(C)[C@]21O [EUPAROTIN] | 0.56 µM |
| C=C1C(=O)O[C@@H]2/C=C(\C)[C@@H](OC(C)=O)C/C=C(/C)C(O)[C@@H](OC(=O)/C(C)=C\C)[C@@H]12 (some centres undefined) [EUPATOCUNIN] | 0.27 µM |
| C=C1C(=O)O[C@@H]2/C=C(\C)[C@@H](OC(C)=O)C/C=C(\C)C(OC(=O)[C@]3(C)O[C@@H]3C)C(O)[C@@H]12 (some centres undefined) [EUPATOCUNOXIN] | 4.04 µM |

| Structure (SMILES) | EC50 |
| --- | --- |
| C=C1C(=O)O[C@@H]2/C=C(\C)CC/C=C(\C)C[C@@H](O)[C@@H]12 [EUPATOLIDE] | 5 µM |
| C=C1C(=O)O[C@@H]2/C=C(\C)CC/C=C(/C)C[C@@H](OC(=O)/C(=C/CO)CO)[C@@H]12 [EUPATORIOPICRIN] | 3.3 µM |
| C=C1C(=O)O[C@H]2[C@H]1[C@H](OC(=O)/C(C)=C\C)C[C@]1(CO1)[C@@H]1[C@H](O)[C@H]3O[C@@]3(C)[C@]21O [EUPATOROXIN] | 7.14 µM |
| C=C1C(=O)O[C@H]2[C@H]1[C@H](OC(=O)/C(C)=C\C)CC(=C)[C@@H]1[C@H](O)[C@H]3O[C@@]3(C)[C@@]12O [EUPATUNDIN] | 1.04 µM |
| C=C1C(=O)O[C@H]2C=C(C)[C@H]3[C@@H](OC(C)=O)C[C@@](C)(O)[C@@H]3C[C@H]12 [GAILLARDIN] | 7.52 µM |
| C=C1C(=O)O[C@@H]2C[C@@H](C)[C@@H]3C=CC(=O)[C@@]3(C)[C@@H](O)[C@H]12 [HELENALIN] | 0.76 µM |
| C=C1C(=O)O[C@H]2C[C@@]3(C)O[C@@H]3CC/C(C(=O)OC)=C\C[C@H]12 [HIRUSUTOLIDE] | 7 µM |
| C=C1CC(OC(=O)/C(C)=C/C)C2C(=C)C(=O)OC2/C=C(\C)C(O)CC1O (centres undefined) [HYDROXYISONOBILIN] | 3.7 µM |
| C=C1C(=O)O[C@@H]2[C@H]3C(CO)=CC(=O)C3=C(C)C[C@@H](O)[C@@H]12 [LACTUCIN] | 260 µM |
| C=C1C(=O)O[C@@H]2/C=C(/C)[C@@]3(O)C=C[C@@](C)(C[C@@H](OC(=O)/C(=C\C)COC(C)=O)[C@@H]12)O3 [LIATRIN] | 3.93 µM |
| C=C1C(=O)O[C@H]2C[C@@H](C)[C@@H]3C=CC(=O)[C@@]3(C)[C@H](OC(C)=O)[C@H]12 [LINIFOLIN A] | 2 µM |
| C=C1C(=O)O[C@H]2C[C@@H](C)[C@@H]3C=CC(=O)[C@@]3(C)[C@H](O)[C@H]12 [MEXICANIN I] | 1.26 µM |
| C=C1C(=O)O[C@@H]2[C@H]1CC[C@H](C)[C@]1(O)C=CC(=O)[C@@]21C [PARTHENIN] | 1.3 µM |
| C=C1C(=O)O[C@@H]2/C=C(\CO)CC/C=C(\C)C[C@H](O)[C@@H]12 [SALONITENOLIDE] | 9.1 µM |
| C=C1C(=O)O[C@@H]2/C=C(\C)C[C@H](O)/C=C(\C)CC[C@@H]12 [TAMAULIPIN A] | 5.08 µM |
| C=C1C(=O)O[C@@H]2/C=C(\C)[C@H](O)C/C=C(\C)CC[C@@H]12 [TAMAULIPIN B] | 10.5 µM |
| C=C[C@@]12COC(=O)C(=C)[C@@H]1[C@H]1OC(=O)C(=C)[C@@H]1[C@@H](OC(=O)C(=C)CO)C2 [VERNODALIN] | 5 µM |
| C=C1[C@@H]2[C@H]3OC(=O)C(=C)[C@@H]3CCC(=C)[C@H]2C[C@@H]1OC(=O)C=C(C)C [VERNOFLEXIN] | 4.3 µM |
| C=C1[C@@H]2[C@H]3OC(=O)C(=C)[C@@H]3CCC(=C)[C@@H]2C[C@@H]1O[C@@H]1O[C@H](COC(C)=O)[C@@H](OC(C)=O)[C@H](OC(C)=O)[C@H]1OC(C)=O [VERNOFLEXUOSIDE TETRA ACETYL] | 8.75 µM |
| C=C1[C@@H]2[C@H]3OC(=O)C(=C)[C@@H]3CCC(=C)[C@@H]2C[C@@H]1O[C@@H]1O[C@H](CO)[C@@H](O)[C@H](O)[C@H]1O [VERNOFLEXUOSIDE] | 19 µM |
| C=C[C@@]12COC(=O)C(=C)[C@@H]1[C@H]1OC(=O)C(=C)[C@@H]1[C@@H](OC(C)=O)C2 [VERNOLEPIN ACETATE] | 8.49 µM |
| C=C[C@@]12COC(=O)C(=C)[C@@H]1[C@H]1OC(=O)C(=C)[C@@H]1[C@@H](OC(=O)C(=C)C)C2 [VERNOLEPIN METHACRYLATE] | 1.22 µM |
| C=C[C@@]12COC(=O)C(=C)[C@@H]1[C@H]1OC(=O)C(=C)[C@@H]1[C@@H](O)C2 [VERNOLEPIN] | 6.52 µM |
| C=C[C@]12COC(=O)C(=C)[C@H]1[C@H](OC(C)=O)[C@H]1C(=C)C(=O)O[C@@H]1C2 [VERNOMENIN ACETATE] | 26.2 µM |
| C=C[C@@]12COC(=O)C(=C)[C@@H]1[C@@H](O)[C@@H]1C(=C)C(=O)O[C@H]1C2 [VERNOMENIN] | 127 µM |
| C=C1C(=O)O[C@@H]2/C=C3\CCC4OC4(C[C@H](OC(=O)C(C)C)[C@@H]12)C(O)OC3 (some centres undefined) [VERNOMYGDIN] | 4.12 µM |
| C=C1C(=O)O[C@H]2C[C@H](C)[C@@H]3CC(=O)C(C)=C3C[C@H]12 [XERANTOLIDE] | 6.1 µM |
